Assay results from the NIST ThermoML archive (doi:10.1021/je600527c).
± gives the expanded uncertainty stated by the source.

Assays:
[1] = 298.15 K; 101.33 kPa; Liquid; Pycnometric method
[2] = refractive index (Na D-line) (dimensionless); settings: 298.15 K; 101.33 kPa; Liquid; Standard Abbe refractometry

mass density [1]: 1045 ± 8 kg/m3
refractive index [2]: 1.37 ± 0.001
Structure (SMILES): CC(=O)O [acetic acid]
